{"source": "patent US9981997B2", "about": "“Chemical reagents for attaching affinity molecules on surfaces” (ARIZONA BOARD OF REGENTS ON BEHALF OF ARIZONA STATE …, priority 2013, dated 2018)", "molecular_target": "T1, thrombin (Homo sapiens, UniProt P00734)", "T1 construct": "protein cognates human α-thrombin and human α5β1-integrin immobilized on mica surfaces; purchased Abeam (so in the source)", "test": "AFM recognition imaging of thrombin on mica", "type": "binding", "settings": "conjugate on Ni-coated MacMode silicon tip; protein 50 pg/μL", "excerpt": "The AFM based recognition imaging is an effective tool for clinical diagnostics. The attachment and click chemistry of the disclosure works well in combination with the RI technique. Prior to this disclosure, the recognition imaging of clinically relevant proteins thrombin and integrin had not been reported. […] Linker 6a was tailored for RI. Its conjugate D-1a or P-1a was attached to Ni-coated MacMode tips (from Nanoworld) following the same protocol above mentioned. The protein samples (thrombin or α5β1 integrin) were deposited on mica using the same glutaraldehyde chemistry. However, the optimal protein concentration (50 pg/μL in 1×PBS buffer, pH 7.4) for the RI was […] lower than that for the force measurements, which was pre-determined by imaging the surface with bare AFM tips in the air mode, ensuring that the protein molecules were well distributed in a predefined area. For one measurement, only […] of protein sample is needed in the current setup. Thus, a few femtomoles of proteins can readily be detected by the AFM based recognition imaging. […] RI simultaneously produces both topographic and recognition images. Each bright round spot in the topographic image represents a protein molecule (thrombin in Panel A and integrin in panel D of FIG. 16). […]"}
{"substance": "D-1a: thrombin-binding DNA aptamer 5′-GGTTGGTGTGGTTGG, 3′-thiol, joined to PEG linker 6a by Michael addition (DNA, backbone not given here; 3'-thiol joined to PEG linker 6a by Michael addition)", "values": [{"measurement": "recognition of thrombin (topography vs recognition image)", "result": "About 77%"}]}
